Test results reported in publication PMC5988656, “Phase I studies of AZD1208, a proviral integration Moloney virus kinase inhibitor in solid and haematological cancers” (British Journal of Cancer, 2018).
Where “and” joins values, the source holds several entries; their conditions need not be identical. Identical values can stand only once.

Columns and labels:
[1] = AML dose-escalation study: pharmacokinetics (plasma, urine); type: in vivo, human; settings: for Gmean plasma concentration of AZD1208 (± SD): Cycle 1, Day 14
Procedure: The schedules for collection of blood and urine samples for PK analyses in each cohort in both studies are described in Supplementary Table 1. When necessary for clinical response assessment in the AML study, a bone marrow sample for PK analysis was collected at Cycle 1, Day 28.
The concentration of AZD1208 in plasma and urine was determined by Covance, on behalf of Clinical Bioanalysis Alliance at AstraZeneca R&D, using a bioanalytical method. A volume of 0.05 ml of K2EDTA human plasma sample was extracted by liquid–liquid extraction using 0.7 ml of methyl tert-butyl ether. Approximately 100 µl of the supernatant was transferred, evaporated to dryness and reconstituted with 350 µl of 1:1 methanol:water, and a 5 µl injection was made to the high-performance liquid chromatography (HPLC) column. HPLC separations were performed on a Phenomenex LUNA C18 (50 × 2 mm, 5 µm) column using a mobile phase of 0.1% formic acid in water (A) and 0.1% formic acid in acetonitrile (B) at a flow rate of 0.6 ml/min and a column temperature of 40 °C. AZD1208-D5 was used as the internal standard. Detection was performed in a Sciex API4000 mass spectrometer, in a positive electrospray ionisation mode, using multiple reaction monitoring detection (AZD1208: 380.0–>248.1; AZD1208-D5: 385.0–>253.1).

p4E-BP1 S65 = test: PD: phosphorylation of 4E-BP1 at S65 by NanoPro immunoassay, AML study; type: in vivo, human
Procedure: For AZD1208 PD evaluations, bone marrow aspirates were collected (pretreatment and Cycle 1, Day 1, 2–6 h following administration of AZD1208) and peripheral blood samples were collected (pretreatment on Cycle 1, Day 1; and on-treatment at Cycle 1, Day 1 at 3, 6 and 24 h post-dose; Cycle 1, Day 14 at pre-dose, 3 and 6 h post-dose). Mononuclear cells were isolated, and protein lysates prepared, for subsequent analysis of phosphorylated BAD at S112 by MesoScale Discovery ELISA and phosphorylation of 4E-BP1 at S65 by NanoPro immunoassay [unpublished data: McEachern et al. 2018, manuscript in preparation]. Samples were considered evaluable when the baseline biomarker levels were above the background signal (as defined by buffer-only negative control samples) and within the linear range of assay. Additionally, only blood samples containing detectable blasts were considered for analysis.

## N[C@@H]1CCCN(c2c(/C=C3\SC(=O)NC3=O)cccc2-c2ccccc2)C1 [AZD1208]
[1]; 0.5 h post-dose, 120 mg, n=3
  Gmean plasma concentration of AZD1208 (± SD): 1758.9 (970.3, 3188.5) ng ml
[1]; 0.5 h post-dose, 240 mg, n=6
  Gmean plasma concentration of AZD1208 (± SD): 2365.9 (976.3, 6694.0) ng ml
[1]; 0.5 h post-dose, 480 mg, n=6
  Gmean plasma concentration of AZD1208 (± SD): 2887.4 (322.6, 25 841.7) ng ml
[1]; 0.5 h post-dose, 700 mg, n=7
  Gmean plasma concentration of AZD1208 (± SD): 2029.2 (863.1, 4770.5) ng ml
[1]; 1 h post-dose, 120 mg, n=3
  Gmean plasma concentration of AZD1208 (± SD): 2050.2 (1514.6, 2775.2) ng ml
[1]; 1 h post-dose, 480 mg, n=6
  Gmean plasma concentration of AZD1208 (± SD): 4956.2 (1164.7, 21 090.8) ng ml
[1]; 1 h post-dose, 700 mg, n=7
  Gmean plasma concentration of AZD1208 (± SD): 2013.8 (1004.8, 4035.8) ng ml
[1]; 1 h post-dose, 900 mg, n=9
  Gmean plasma concentration of AZD1208 (± SD): 1952.5 (1166.1, 3269.1) ng ml
[1]; 1.5 h post-dose, 120 mg, n=3
  Gmean plasma concentration of AZD1208 (± SD): 2375.1 (1849.1, 3050.7) ng ml
[1]; 1.5 h post-dose, 240 mg, n=6
  Gmean plasma concentration of AZD1208 (± SD): 5142.8 (4058.6, 6516.6) ng ml
[1]; 1.5 h post-dose, 480 mg, n=6
  Gmean plasma concentration of AZD1208 (± SD): 5384.2 (2123.1, 13 654.8) ng ml
[1]; 1.5 h post-dose, 700 mg, n=7
  Gmean plasma concentration of AZD1208 (± SD): 3963.7 (2236.9, 7023.5) ng ml
[1]; 1.5 h post-dose, 900 mg, n=9
  Gmean plasma concentration of AZD1208 (± SD): 2747.1 (1719.7, 4388.3) ng ml
[1]; 2 h post-dose, 120 mg, n=3
  Gmean plasma concentration of AZD1208 (± SD): 2216.3 (1388.5, 3537.7) ng ml
[1]; 2 h post-dose, 240 mg, n=6
  Gmean plasma concentration of AZD1208 (± SD): 6153.8 (5277.1, 7175.8) ng ml
[1]; 2 h post-dose, 480 mg, n=6
  Gmean plasma concentration of AZD1208 (± SD): 5818.8 (2320.7, 14 589.5) ng ml
[1]; 2 h post-dose, 700 mg, n=7
  Gmean plasma concentration of AZD1208 (± SD): 4388.1 (2945.6, 6536.9) ng ml
[1]; 2 h post-dose, 900 mg, n=9
  Gmean plasma concentration of AZD1208 (± SD): 3107.5 (1803.0, 5356.1) ng ml
[1]; 3 h post-dose, 120 mg, n=3
  Gmean plasma concentration of AZD1208 (± SD): 2052.0 (1181.0, 3565.2) ng ml
[1]; 3 h post-dose, 240 mg, n=6
  Gmean plasma concentration of AZD1208 (± SD): 3687.8 (1657.8, 8203.5) ng ml
[1]; 3 h post-dose, 480 mg, n=6
  Gmean plasma concentration of AZD1208 (± SD): 5515.9 (1885.1, 16 139.7) ng ml
[1]; 3 h post-dose, 700 mg, n=7
  Gmean plasma concentration of AZD1208 (± SD): 5521.1 (2560.5, 11 905.2) ng ml
[1]; 3 h post-dose, 900 mg, n=9
  Gmean plasma concentration of AZD1208 (± SD): 3179.0 (1505.2, 6714.4) ng ml
[1]; 6 h post-dose, 120 mg, n=3
  Gmean plasma concentration of AZD1208 (± SD): 1761.5 (1019.2, 3044.5) ng ml
[1]; 6 h post-dose, 240 mg, n=6
  Gmean plasma concentration of AZD1208 (± SD): 3196.3 (1504.2, 6791.5) ng ml
[1]; 6 h post-dose, 480 mg, n=6
  Gmean plasma concentration of AZD1208 (± SD): 5420.2 (1806.5, 16 262.9) ng ml
[1]; 6 h post-dose, 700 mg, n=7
  Gmean plasma concentration of AZD1208 (± SD): 4452.1 (2126.6, 9320.8) ng ml
[1]; 6 h post-dose, 900 mg, n=9
  Gmean plasma concentration of AZD1208 (± SD): 2320.5 (896.7, 6004.8) ng ml
[1]; 8 h post-dose, 120 mg, n=3
  Gmean plasma concentration of AZD1208 (± SD): 1700.4 (974.4, 2967.5) ng ml
[1]; 8 h post-dose, 240 mg, n=6
  Gmean plasma concentration of AZD1208 (± SD): 2735.5 (1203.4, 6218.4) ng ml
[1]; 8 h post-dose, 480 mg, n=6
  Gmean plasma concentration of AZD1208 (± SD): 5248.1 (1804.2, 15 265.9) ng ml
[1]; 8 h post-dose, 700 mg, n=7
  Gmean plasma concentration of AZD1208 (± SD): 4064.8 (2043.6, 8085.1) ng ml
[1]; 8 h post-dose, 900 mg, n=9
  Gmean plasma concentration of AZD1208 (± SD): 2608.4 (2223.6, 3059.7) ng ml
[1]; 24 h post-dose, 120 mg, n=3
  Gmean plasma concentration of AZD1208 (± SD): 1248.3 (485.6, 3208.8) ng ml
[1]; 24 h post-dose, 240 mg, n=6
  Gmean plasma concentration of AZD1208 (± SD): 1818.9 (580.7, 5697.5) ng ml
[1]; 24 h post-dose, 480 mg, n=6
  Gmean plasma concentration of AZD1208 (± SD): 3154.5 (406.4, 24 485.6) ng ml
[1]; 24 h post-dose, 700 mg, n=7
  Gmean plasma concentration of AZD1208 (± SD): 2302.0 (643.6, 8233.0) ng ml
[1]; 24 h post-dose, 900 mg, n=9
  Gmean plasma concentration of AZD1208 (± SD): 593.0 (174.0, 2021.0) ng ml
[1]; pre-dose, 120 mg, n=3
  Gmean plasma concentration of AZD1208 (± SD): 1163.1 (335.5, 4032.0) ng ml
[1]; pre-dose, 240 mg, n=6
  Gmean plasma concentration of AZD1208 (± SD): 2106.9 (693.2, 6845.2) ng ml
[1]; pre-dose, 480 mg, n=6
  Gmean plasma concentration of AZD1208 (± SD): 2302.9 (541.6, 9792.3) ng ml
[1]; pre-dose, 700 mg, n=7
  Gmean plasma concentration of AZD1208 (± SD): 2513.6 (1057.2, 5976.4) ng ml
[1]; pre-dose, 900 mg, n=9
  Gmean plasma concentration of AZD1208 (± SD): 463.1 (444.2, 482.7) ng ml
[1]; across the doses, 7/16 patients
  Patients with marked accumulation (>3-fold): 44%
[1]; after a single dose
  Median time to maximum plasma concentration (Tmax): ~ 3 h
[1]; after multiple doses
  Differences in AZD1208 concentrations between individuals within the same cohort: up to 10 fold
[1]; following multiple doses
  Dose proportionality of Cmax and AUC0–24: less than dose proportional
[1]; individual patients at 480 mg
  Accumulation ratio: 3.6 and 0.36
[1]; within 24 h, all cohorts
  Administered dose eliminated unchanged in urine: < 1%
p4E-BP1 S65; evaluable bone marrow samples, single dose
  Patients with reductions in p4E-BP1 S65: 3/11
p4E-BP1 S65; peripheral blood samples
  Patients with decreases in p4E-BP1 S65: 4/7
